Reference: the NIST ThermoML archive (doi:10.1021/acs.jced.5b00246)
Several values for one entry are separate records, joined by “and”; a condition that tells them apart may be missing. Identical values can stand only once.

Conditions: 101.33 kPa, Liquid, NMR spin-echo technique

CCCCCO [pentan-1-ol]
Conditions	self diffusion coefficient
253.13 K	5.27e-11 m2/s
253.19 K	5.32e-11 m2/s
258.42 K	6.61e-11 m2/s
258.47 K	6.61e-11 m2/s
263.25 K	8.06e-11 m2/s
263.28 K	8.11e-11 m2/s
268.65 K	1.01e-10 m2/s
268.66 K	1.02e-10 m2/s
278.4 K	1.51e-10 m2/s
278.43 K	1.52e-10 m2/s
288.31 K	2.17e-10 m2/s
288.33 K	2.17e-10 m2/s
298.16 K	3.01e-10 m2/s
298.17 K	3e-10 m2/s
298.19 K	2.99e-10 m2/s
298.21 K	3.02e-10 m2/s
298.27 K	3.02e-10 m2/s
308.09 K	4.13e-10 m2/s
308.11 K	4.14e-10 m2/s
318.08 K	5.54e-10 m2/s
318.09 K	5.56e-10 m2/s
323.1 K	6.39e-10 m2/s
323.15 K	6.43e-10 m2/s
327.86 K	7.3e-10 m2/s and 7.36e-10 m2/s
337.71 K	9.56e-10 m2/s
337.74 K	9.49e-10 m2/s
347.21 K	1.22e-09 m2/s
347.25 K	1.22e-09 m2/s
352.35 K	1.4e-09 m2/s
352.36 K	1.4e-09 m2/s
352.55 K	1.41e-09 m2/s
364.52 K	1.84e-09 m2/s
364.59 K	1.83e-09 m2/s
364.73 K	1.83e-09 m2/s

C1COCCO1 [1,4-dioxane]
Conditions	self diffusion coefficient [m2/s]
288.31 K	9.1e-10
288.33 K	8.97e-10
293.11 K	1.03e-09
298.13 K	1.1e-09
298.17 K	1.12e-09
298.18 K	1.09e-09
298.2 K	1.13e-09
303.12 K	1.24e-09
307.92 K	1.3e-09
308.06 K	1.32e-09
317.85 K	1.55e-09
318.24 K	1.57e-09
327.94 K	1.79e-09
327.95 K	1.81e-09
338.09 K	2.15e-09
338.12 K	2.09e-09
338.13 K	2.11e-09
347.87 K	2.37e-09
347.97 K	2.43e-09
358.25 K	2.66e-09
358.49 K	2.66e-09

CCCCC(CC)COC(=O)c1ccccc1C(=O)OCC(CC)CCCC (stereo not given) [bis(2-ethylhexyl) 1,2-benzenedicarboxylate]
Conditions	self diffusion coefficient [m2/s]
268 K	1.31e-12
273 K	2.05e-12
283 K	4.57e-12
298.1 K	1.24e-11
303.18 K	1.71e-11
303.2 K	1.86e-11
312.89 K	2.91e-11
313.2 K	3.05e-11
322.7 K	4.5e-11
322.84 K	4.53e-11
322.88 K	4.53e-11
323.03 K	4.57e-11
323.05 K	4.57e-11
323.1 K	4.73e-11
332.7 K	6.93e-11
333.16 K	6.74e-11
333.2 K	6.78e-11
342.5 K	9.48e-11
343.65 K	9.74e-11
343.7 K	9.79e-11
352.86 K	1.3e-10
352.88 K	1.31e-10
362.72 K	1.69e-10
362.75 K	1.72e-10

CCCCCCCCCCCC [dodecane]
Conditions	self diffusion coefficient [m2/s]
264.14 K	3.95e-10
266.5 K	4.2e-10
268.03 K	4.37e-10
278.2 K	5.59e-10
278.52 K	5.63e-10
278.56 K	5.64e-10
278.72 K	5.66e-10
288.09 K	6.97e-10
288.49 K	7.03e-10
288.52 K	7.03e-10
298.15 K	8.56e-10
298.2 K	8.57e-10
298.21 K	8.57e-10
308.15 K	1.03e-09
308.16 K	1.04e-09
318.15 K	1.22e-09
318.16 K	1.23e-09
323.17 K	1.33e-09
328.17 K	1.43e-09
328.22 K	1.44e-09
328.25 K	1.47e-09
333.14 K	1.54e-09
337.93 K	1.67e-09
337.97 K	1.66e-09
337.99 K	1.67e-09
348.08 K	1.92e-09
352.75 K	2.07e-09
352.77 K	2.04e-09
364.53 K	2.44e-09
364.54 K	2.41e-09

CC(C)CCCC(C)CCCC(C)CCCCC(C)CCCC(C)CCCC(C)C (stereo not given) [2,6,10,15,19,23-hexamethyltetracosane]
Conditions	self diffusion coefficient [m2/s]
270.4 K	5.32e-12
273 K	6.72e-12
283.3 K	1.34e-11
283.6 K	1.32e-11
288.28 K	1.81e-11
293.13 K	2.19e-11
293.19 K	2.26e-11
298 K	2.79e-11
298.19 K	2.88e-11
298.44 K	2.91e-11
303 K	3.57e-11
303.18 K	3.69e-11
312.99 K	5.7e-11
314.3 K	5.7e-11
322.69 K	8.15e-11
322.72 K	8.24e-11
323.16 K	8.12e-11
325.7 K	8.83e-11
333.03 K	1.17e-10
333.49 K	1.14e-10
334.8 K	1.18e-10
342.81 K	1.5e-10
344.9 K	1.6e-10
348.2 K	1.74e-10
352.82 K	1.96e-10
353.15 K	1.98e-10
362.6 K	2.44e-10
362.82 K	2.5e-10
362.88 K	2.6e-10

C1CCCCC1 [cyclohexane]
Conditions	self diffusion coefficient [m2/s]
283.47 K	1.07e-09
283.53 K	1.09e-09
288.31 K	1.19e-09
288.32 K	1.2e-09
298.12 K	1.46e-09
298.15 K	1.47e-09
308.02 K	1.73e-09
308.03 K	1.76e-09
308.16 K	1.71e-09
308.17 K	1.72e-09
317.68 K	2.03e-09
317.73 K	2.08e-09
318.22 K	2.05e-09
318.25 K	2.05e-09
323.04 K	2.23e-09
328.13 K	2.47e-09
328.15 K	2.47e-09
333.02 K	2.6e-09
333.05 K	2.65e-09
342.79 K	2.97e-09
348.16 K	3.25e-09

C[S+](C)[O-] [dimethyl sulfoxide]
Conditions	self diffusion coefficient [m2/s]
293.09 K	6.55e-10
298.26 K	7.46e-10
298.29 K	7.45e-10
308.1 K	9.1e-10
318.03 K	1.12e-09
328.1 K	1.34e-09
338.12 K	1.59e-09
348.17 K	1.84e-09
363.71 K	2.29e-09

Cc1ccccc1 [toluene]
Conditions	self diffusion coefficient
239.09 K	7.12e-10 m2/s
240.94 K	7.53e-10 m2/s
248.57 K	8.98e-10 m2/s
251.71 K	9.77e-10 m2/s
253.27 K	1.01e-09 m2/s
253.28 K	1.01e-09 m2/s
258.16 K	1.13e-09 m2/s
258.23 K	1.13e-09 m2/s
263.51 K	1.24e-09 m2/s
268.32 K	1.38e-09 m2/s
273.43 K	1.5e-09 m2/s
273.54 K	1.52e-09 m2/s
278.07 K	1.67e-09 m2/s
278.15 K	1.67e-09 m2/s
288.05 K	1.98e-09 m2/s
293.08 K	2.13e-09 m2/s
298 K	2.3e-09 m2/s
298.18 K	2.27e-09 m2/s
298.2 K	2.32e-09 m2/s
298.21 K	2.28e-09 m2/s and 2.3e-09 m2/s
308.07 K	2.71e-09 m2/s
322.69 K	3.15e-09 m2/s
323.16 K	3.32e-09 m2/s
323.18 K	3.3e-09 m2/s
332.93 K	3.56e-09 m2/s
333.16 K	3.56e-09 m2/s
343.45 K	4.09e-09 m2/s
